Consider 21 molecules from ChEMBL document CHEMBL4393720, “Design, synthesis and biological evaluation of bromophenol-thiazolylhydrazone hybrids inhibiting the interaction of translation initiation factors eIF4E/eIF4G as multifunctional agents for cancer treatment” (Eur J Med Chem, 2019).

SMILES strings stand for the structures.

As a reminder, the IC50 is the midpoint of a concentration-inhibition curve.

One assay has as its system A549. Briefly: Antiproliferative activity against human A549 cells assessed as inhibition of cell growth incubated for 48 hrs by MTT assay. The conditions noted are these: A549, 48 h. Type of assay: functional, cell-based. In general terms: Tetrazolium assays rely on reduction of a dye to a coloured formazan, in cell work by metabolically active cells.
For another assay, the system named is Caco-2. Briefly: Antiproliferative activity against human Caco2 cells assessed as inhibition of cell growth incubated for 48 hrs by MTT assay. Type of assay: functional, cell-based. The conditions noted are these: Caco-2, 48 h.
The test system of another assay is HepG2. The assay can be described thus: Antiproliferative activity against human HepG2 cells assessed as inhibition of cell growth incubated for 48 hrs by MTT assay. Type of assay: functional, cell-based. The conditions noted are these: HepG2, 48 h.
In another assay the test system is HUVEC. The assay can be described thus: Antiproliferative activity against human HUVEC cells assessed as inhibition of cell growth incubated for 48 hrs by MTT assay. Type of assay: cell-based.
Another assay relates to U-87 MG. The assay can be described thus: Antiproliferative activity against human U87MG cells assessed as inhibition of cell growth incubated for 48 hrs by MTT assay. Type of assay: functional, cell-based, U-87MG ATCC.

With `Fc1ccc(/C=N/Nc2nc(-c3cc(C(F)(F)F)cc(C(F)(F)F)c3)cs2)cc1F`, the IC50 with A549 is 6.23 µM; in the assay with Caco-2 it was 62.8 µM; in the assay on HepG2, 16.7 µM; with HUVEC, more than 100 µM; with U-87 MG, 29.7 µM.

On to `COc1cc(/C=N/Nc2nc(-c3ccc(C(F)(F)F)cc3)cs2)cc(Br)c1OC`, for which the IC50 with A549 was 18.3 µM; in the assay with Caco-2, 65.9 µM; in the assay with HepG2 it was 31.2 µM; in the assay on HUVEC it was more than 100 µM; with U-87 MG, 41 µM.

Regarding `COc1cc(/C=N/Nc2nc(-c3ccc(F)c(F)c3)cs2)cc(Br)c1OC`, the IC50 in the assay with A549 was 21.1 µM; in the assay with Caco-2, 21.2 µM; with HepG2, 22.4 µM; with HUVEC, more than 100 µM; in the assay with U-87 MG, 26.3 µM.

For the molecule `COc1ccccc1-c1csc(N/N=C/c2cc(OC)c(OC)c(Br)c2Br)n1`, the IC50 with A549 was 85.1 µM; in the assay on Caco-2 it was more than 100 µM; in the assay with HepG2, more than 100 µM; in the assay on HUVEC, more than 100 µM; with U-87 MG, more than 100 µM.

As for `Fc1ccc(/C=N/Nc2nc(-c3ccc(Br)cc3)cs2)cc1F`, the IC50 is more than 100 µM with A549; 43.9 µM in the assay on Caco-2; more than 100 µM with HepG2; more than 100 µM with HUVEC; more than 100 µM in the assay on U-87 MG.

Consider `COc1cc(/C=N/Nc2nc(-c3cccc(Br)c3)cs2)c(Br)c(Br)c1OC`, for which the IC50 in the assay on A549 was 37 µM; with Caco-2 it was more than 100 µM; in the assay with HepG2, more than 100 µM; in the assay on HUVEC it was more than 100 µM; with U-87 MG, 27.6 µM.

Consider `O=C(O)/C(Cc1ccccc1[N+](=O)[O-])=N\Nc1nc(-c2ccc(Cl)c(Cl)c2)cs1`, for which the IC50 was determined as 58.6 µM in the assay on A549; 44.7 µM with Caco-2; 36.9 µM in the assay on HepG2; 67.5 µM in the assay with HUVEC; 75 µM with U-87 MG.

As for `COc1cc(/C=N/Nc2nc(-c3ccc(Br)cc3)cs2)c(Br)c(Br)c1OC`, the IC50 is 46.1 µM in the assay on A549; more than 100 µM in the assay on Caco-2; more than 100 µM in the assay on HepG2; more than 100 µM with HUVEC; more than 100 µM with U-87 MG.

Take `Fc1ccc(/C=N/Nc2nc(-c3ccc(F)c(F)c3)cs2)cc1F`: the IC50 with A549 is 8.49 µM; in the assay on Caco-2 it was 14.2 µM; in the assay with HepG2 it was 26.6 µM; with HUVEC it was 59.7 µM; in the assay on U-87 MG, 43.9 µM.

Take `COc1cc(/C=N/Nc2nc(-c3cc(C(F)(F)F)cc(C(F)(F)F)c3)cs2)c(Br)c(Br)c1OC`: the IC50 with A549, in the assay on Caco-2, with HepG2, with HUVEC and in the assay on U-87 MG was more than 100 µM throughout.

On to `COc1ccccc1-c1csc(N/N=C/c2ccc(F)c(F)c2)n1`, for which the IC50 in the assay on A549 was 61.3 µM; in the assay on Caco-2, 25.2 µM; with HepG2, more than 100 µM; with HUVEC it was more than 100 µM; in the assay on U-87 MG, 40.6 µM.

Turning to `Fc1ccc(/C=N/Nc2nc(-c3ccccc3)cs2)cc1F`, the IC50 in the assay on A549 was 91.4 µM; with Caco-2 it was 20.9 µM; in the assay on HepG2 it was more than 100 µM; in the assay with HUVEC, more than 100 µM; in the assay with U-87 MG, more than 100 µM.

For `COc1cc(/C=N/Nc2nc(-c3cccc(Br)c3)cs2)cc(Br)c1OC`, the IC50 in the assay with A549 is 56 µM; in the assay on Caco-2, 43.4 µM; with HepG2 it was 66.2 µM; with HUVEC it was more than 100 µM; in the assay with U-87 MG, 86.3 µM.

Take `Fc1ccc(/C=N/Nc2nc(-c3cccc(Br)c3)cs2)cc1F`: the IC50 in the assay with A549 was 16.2 µM; in the assay with Caco-2, 17.5 µM; in the assay with HepG2 it was 16.7 µM; in the assay with HUVEC, more than 100 µM; in the assay with U-87 MG it was 39.9 µM.

Take `COc1cc(/C=N/Nc2nc(-c3ccccc3)cs2)c(Br)c(Br)c1OC`: the IC50 in the assay on A549 was 15.3 µM; in the assay with Caco-2 it was 26.5 µM; in the assay on HepG2, 33.6 µM; with HUVEC, more than 100 µM; in the assay with U-87 MG, 20.1 µM.

For `COc1cc(/C=N/Nc2nc(-c3ccc(C(F)(F)F)cc3)cs2)c(Br)c(Br)c1OC`, the IC50 in the assay with A549 was 17.6 µM; in the assay on Caco-2 it was more than 100 µM; with HepG2 it was more than 100 µM; in the assay with HUVEC, more than 100 µM; with U-87 MG, more than 100 µM.

`COc1cc(/C=N/Nc2nc(-c3ccc(F)c(F)c3)cs2)c(Br)c(Br)c1OC`: the IC50 in the assay on A549 is 8.38 µM; with Caco-2, 22.8 µM; with HepG2 it was 49.7 µM; in the assay on HUVEC it was 54.7 µM; in the assay with U-87 MG it was 19.6 µM.

On to `COc1ccccc1-c1csc(N/N=C/c2cc(Br)c(OC)c(OC)c2)n1`, for which the half-inhibitory concentration (IC50) was 94.9 µM in the assay on A549; more than 100 µM in the assay on Caco-2; 82.1 µM with HepG2; more than 100 µM with HUVEC; more than 100 µM in the assay on U-87 MG.

Consider `COc1cc(/C=N/Nc2nc(-c3ccccc3)cs2)cc(Br)c1OC`, for which the IC50 was 40 µM in the assay on A549; 64.2 µM in the assay on Caco-2; 68.3 µM in the assay on HepG2; more than 100 µM with HUVEC; 74.1 µM in the assay with U-87 MG.

As to `COc1cc(/C=N/Nc2nc(-c3ccc(Br)cc3)cs2)cc(Br)c1OC`, the IC50 is 52.3 µM with A549; 36.2 µM in the assay on Caco-2; 64.6 µM in the assay on HepG2; more than 100 µM with HUVEC; 27.9 µM in the assay on U-87 MG.

As to `COc1cc(/C=N/Nc2nc(-c3cc(C(F)(F)F)cc(C(F)(F)F)c3)cs2)cc(Br)c1OC`, the IC50 with A549 was 94.2 µM; in the assay on Caco-2, more than 100 µM; in the assay with HepG2 it was more than 100 µM; in the assay on HUVEC, more than 100 µM; with U-87 MG, more than 100 µM.
